Results: US20250353891A1 (MEDIMMUNE LIMITED, priority 2022, published 2025)
Starred links: 1 amine or outer side, 2 acyl side, 3 side chain; linkers in the order of their positions; H or OH if unused. Non-standard residues stand in square brackets, D forms with d. Residues, ends and D or L forms follow the SMILES beside them. Groups on a side chain read outwards from the residue. *: point of attachment. C20 diacid = O=C(O)CCCCCCCCCCCCCCCCCCC(=O)*; C18 diacid = O=C(O)CCCCCCCCCCCCCCCCC(=O)*; γGlu = O=C(O)[C@H](CCC(=O)[*:2])N[*:1]; αMeF = C[C@](N)(Cc1ccccc1)C(=O)O; AEEA = NCCOCCOCC(=O)O; Aib = CC(C)(N)C(=O)O

Assays:
[1] = target: human glucagon receptor (hGCGR) (Homo sapiens, UniProt P47871); experiment: cAMP production (HTRF) in CHO cells expressing hGCGR; assay type: cell-based; parameters: expressed in transfected cells; conditions: Table 7, peptides modified at position 20; cAMP in CHO hGCGR cells; geometric mean; read-out: hGluc-R EC50
human glucagon receptor (hGCGR), sequence (P47871 26-477): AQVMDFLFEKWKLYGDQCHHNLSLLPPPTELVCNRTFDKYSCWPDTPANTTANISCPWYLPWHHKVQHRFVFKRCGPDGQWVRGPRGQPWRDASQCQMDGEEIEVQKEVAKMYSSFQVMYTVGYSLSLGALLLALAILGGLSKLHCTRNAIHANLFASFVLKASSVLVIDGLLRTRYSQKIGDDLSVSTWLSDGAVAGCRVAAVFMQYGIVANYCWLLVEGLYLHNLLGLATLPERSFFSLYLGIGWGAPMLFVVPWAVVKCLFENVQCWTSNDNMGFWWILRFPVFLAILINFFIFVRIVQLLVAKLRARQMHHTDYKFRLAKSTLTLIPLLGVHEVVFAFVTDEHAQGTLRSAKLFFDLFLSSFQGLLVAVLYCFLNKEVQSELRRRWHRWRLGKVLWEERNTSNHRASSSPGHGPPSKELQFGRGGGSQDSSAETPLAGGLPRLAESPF
Procedure, shortened: (§1)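 Cells were resuspended in assay buffer at batch-optimized density, typically 1×10^5 cells/mL for hGLP-1R and 2×10^5 cells/mL for hGCGR. After 30 min incubation at room temperature with compound, cAMP was measured by two-step HTRF. EC50 values came from 4-parameter logistic fits of % Delta F.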

[2] = target: human GLP-1 receptor (hGLP-1R) (Homo sapiens, UniProt P43220); experiment: cAMP production (HTRF) in CHO cells expressing hGLP-1R; assay type: cell-based; parameters: expressed in transfected cells; conditions: for EC50: Table 7, peptides modified at position 20, cAMP in CHO hGLP-1R cells, geometric mean, read-out: hGLP-1R EC50; for % Relative Potency Ratio: Table 7, % GLP-1R activity relative to GLP-1 / % GlucR activity relative to glucagon
human GLP-1 receptor (hGLP-1R), sequence (P43220 24-463): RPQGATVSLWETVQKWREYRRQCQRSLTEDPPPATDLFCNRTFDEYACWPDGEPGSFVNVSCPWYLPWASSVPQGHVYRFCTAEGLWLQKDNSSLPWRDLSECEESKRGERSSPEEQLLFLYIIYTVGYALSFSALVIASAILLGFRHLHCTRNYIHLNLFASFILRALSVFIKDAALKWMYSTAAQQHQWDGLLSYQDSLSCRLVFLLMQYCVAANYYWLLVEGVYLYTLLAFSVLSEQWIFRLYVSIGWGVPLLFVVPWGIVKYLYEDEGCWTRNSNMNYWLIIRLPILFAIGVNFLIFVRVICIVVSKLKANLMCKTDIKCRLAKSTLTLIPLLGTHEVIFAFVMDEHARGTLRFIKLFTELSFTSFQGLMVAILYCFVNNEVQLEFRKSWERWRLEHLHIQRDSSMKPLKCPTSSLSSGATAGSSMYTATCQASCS
Procedure, shortened: as §1

Row | SMILES | EC50 [1] | EC50 [2] | % Relative Potency Ratio [2]
1 | CC[C@H](C)[C@H](NC(=O)[C@H](Cc1c[nH]c2ccccc12)NC(=O)[C@H](CCC(N)=O)NC(=O)[C@@H](NC(=O)[C@](C)(Cc1ccccc1)NC(=O)[C@H](CC(=O)O)NC(=O)[C@H](CCCCNC(=O)COCCOCCNC(=O)COCCOCCNC(=O)CC[C@H](NC(=O)CC[C@H](NC(=O)CCCCCCCCCCCCCCCCC(=O)O)C(=O)O)C(=O)O)NC(=O)[C@H](C)NC(=O)[C@H](C)NC(=O)[C@H](CCCNC(=N)N)NC(=O)[C@H](CO)NC(=O)[C@H](CC(=O)O)NC(=O)[C@H](CC(C)C)NC(=O)[C@](C)(Cc1ccccc1)NC(=O)[C@H](CCCCN)NC(=O)[C@H](CO)NC(=O)[C@@H](NC(=O)[C@H](CC(=O)O)NC(=O)[C@H](CO)NC(=O)[C@@H](NC(=O)[C@](C)(Cc1ccccc1)NC(=O)[C@H](CO)NC(=O)CNC(=O)[C@H](Cc1c[nH]cn1)NC(=O)C(C)(C)NC(=O)[C@@H](N)Cc1c[nH]cn1)[C@@H](C)O)C(C)C)C(C)C)C(=O)N[C@@H](C)C(=O)N[C@@H](CC(N)=O)C(=O)N[C@H](C(=O)NCC(N)=O)[C@@H](C)O [Peptide 240] (H-H[Aib]HGS[αMeF]TSDVSK[αMeF]LDSRAAK([AEEA-AEEA-γGlu-γGlu-C18 diacid])D[αMeF]VQWIANTG-NH2) | 0.332 nM | 0.0571 nM | 11.5
2 | CC[C@H](C)[C@H](NC(=O)[C@H](Cc1c[nH]c2ccccc12)NC(=O)[C@H](CCC(N)=O)NC(=O)[C@@H](NC(=O)[C@](C)(Cc1ccccc1)NC(=O)[C@H](CC(=O)O)NC(=O)[C@H](CCCCNC(=O)COCCOCCNC(=O)COCCOCCNC(=O)CC[C@H](NC(=O)CC[C@H](NC(=O)CCCCCCCCCCCCCCCCC(=O)O)C(=O)O)C(=O)O)NC(=O)[C@H](C)NC(=O)[C@H](C)NC(=O)[C@H](CCCNC(=N)N)NC(=O)[C@H](CO)NC(=O)[C@H](CC(=O)O)NC(=O)[C@H](CC(C)C)NC(=O)[C@](C)(Cc1ccccc1)NC(=O)[C@H](CCCCN)NC(=O)[C@H](CO)NC(=O)[C@@H](NC(=O)[C@H](CC(=O)O)NC(=O)[C@H](CO)NC(=O)[C@@H](NC(=O)[C@](C)(Cc1ccccc1)NC(=O)[C@H](CO)NC(=O)CNC(=O)[C@H](Cc1c[nH]cn1)NC(=O)C(C)(C)NC(=O)[C@@H](N)Cc1c[nH]cn1)[C@@H](C)O)C(C)C)C(C)C)C(=O)N[C@@H](C)C(=O)N[C@@H](CC(N)=O)C(=O)N[C@H](C(=O)NCC(=O)NCC(N)=O)[C@@H](C)O [Peptide 241] (H-H[Aib]HGS[αMeF]TSDVSK[αMeF]LDSRAAK([AEEA-AEEA-γGlu-γGlu-C18 diacid])D[αMeF]VQWIANTGG-NH2; N-terminus assumed) | 0.175 nM | 0.0358 nM | 9.7
3 | CC[C@H](C)[C@H](NC(=O)[C@H](CO)NC(=O)[C@H](CCC(N)=O)NC(=O)[C@@H](NC(=O)[C@H](Cc1ccccc1)NC(=O)[C@H](CC(=O)O)NC(=O)[C@H](CCCCNC(=O)COCCOCCNC(=O)COCCOCCNC(=O)CC[C@H](NC(=O)CC[C@H](NC(=O)CCCCCCCCCCCCCCCCCCC(=O)O)C(=O)O)C(=O)O)NC(=O)[C@H](C)NC(=O)C(C)(C)NC(=O)[C@H](CCCNC(=N)N)NC(=O)[C@H](CO)NC(=O)[C@H](CC(=O)O)NC(=O)[C@H](CC(C)C)NC(=O)[C@](C)(Cc1ccccc1)NC(=O)[C@H](CCCCN)NC(=O)[C@H](CO)NC(=O)[C@@H](NC(=O)[C@H](CC(=O)O)NC(=O)[C@H](CO)NC(=O)[C@@H](NC(=O)[C@](C)(Cc1ccccc1)NC(=O)[C@H](CO)NC(=O)CNC(=O)[C@H](Cc1c[nH]cn1)NC(=O)C(C)(C)NC(=O)[C@@H](N)Cc1c[nH]cn1)[C@@H](C)O)C(C)C)C(C)C)C(=O)N[C@@H](C)C(=O)N[C@@H](CC(N)=O)C(=O)N[C@H](C(N)=O)[C@@H](C)O [Peptide 242] (H-H[Aib]HGS[αMeF]TSDVSK[αMeF]LDSR[Aib]AK([AEEA-AEEA-γGlu-γGlu-C20 diacid])DFVQSIANT-NH2; N-terminus assumed) | 1.23 nM | 0.249 nM | 9.8
4 | CC[C@H](C)[C@H](NC(=O)[C@H](CO)NC(=O)[C@H](CCC(N)=O)NC(=O)[C@@H](NC(=O)[C@](C)(Cc1ccccc1)NC(=O)[C@H](CC(=O)O)NC(=O)[C@H](CCCCNC(=O)COCCOCCNC(=O)COCCOCCNC(=O)CC[C@H](NC(=O)CCCCCCCCCCCCCCCCC(=O)O)C(=O)O)NC(=O)[C@H](C)NC(=O)[C@H](C)NC(=O)[C@H](CCCNC(=N)N)NC(=O)[C@H](CO)NC(=O)[C@H](CC(=O)O)NC(=O)[C@H](CC(C)C)NC(=O)[C@](C)(Cc1ccccc1)NC(=O)[C@H](CCCCN)NC(=O)[C@H](CO)NC(=O)[C@@H](NC(=O)[C@H](CC(=O)O)NC(=O)[C@H](CO)NC(=O)[C@@H](NC(=O)[C@](C)(Cc1ccccc1)NC(=O)[C@H](CO)NC(=O)CNC(=O)[C@H](Cc1c[nH]cn1)NC(=O)C(C)(C)NC(=O)[C@@H](N)Cc1c[nH]cn1)[C@@H](C)O)C(C)C)C(C)C)C(=O)N[C@@H](C)C(=O)N[C@@H](CC(N)=O)C(=O)N[C@H](C(N)=O)[C@@H](C)O [Peptide 243] (H-H[Aib]HGS[αMeF]TSDVSK[αMeF]LDSRAAK([AEEA-AEEA-γGlu-C18 diacid])D[αMeF]VQSIANT-NH2) | 0.0506 nM | 0.0593 nM | 1.7
5 | CC[C@H](C)[C@H](NC(=O)[C@H](CO)NC(=O)[C@H](CCC(N)=O)NC(=O)[C@@H](NC(=O)[C@](C)(Cc1ccccc1)NC(=O)[C@H](CC(=O)O)NC(=O)[C@H](CCCCNC(=O)COCCOCCNC(=O)COCCOCCNC(=O)CC[C@H](NC(=O)CC[C@H](NC(=O)CCCCCCCCCCCCCCCCCCC(=O)O)C(=O)O)C(=O)O)NC(=O)[C@H](C)NC(=O)[C@H](C)NC(=O)[C@H](CCCNC(=N)N)NC(=O)[C@H](CO)NC(=O)[C@H](CC(=O)O)NC(=O)[C@H](CC(C)C)NC(=O)[C@](C)(Cc1ccccc1)NC(=O)[C@H](CCCCN)NC(=O)[C@H](CO)NC(=O)[C@@H](NC(=O)[C@H](CC(=O)O)NC(=O)[C@H](CO)NC(=O)[C@@H](NC(=O)[C@](C)(Cc1ccccc1)NC(=O)[C@H](CO)NC(=O)CNC(=O)[C@H](Cc1c[nH]cn1)NC(=O)C(C)(C)NC(=O)[C@@H](N)Cc1c[nH]cn1)[C@@H](C)O)C(C)C)C(C)C)C(=O)N[C@@H](C)C(=O)N[C@@H](CC(N)=O)C(=O)N[C@H](C(N)=O)[C@@H](C)O [Peptide 244] (H-H[Aib]HGS[αMeF]TSDVSK[αMeF]LDSRAAK([AEEA-AEEA-γGlu-γGlu-C20 diacid])D[αMeF]VQSIANT-NH2) | 0.42 nM | 0.143 nM | 5.8
6 | CC[C@H](C)[C@H](NC(=O)[C@H](CO)NC(=O)[C@H](CCC(=O)O)NC(=O)[C@@H](NC(=O)[C@](C)(Cc1ccccc1)NC(=O)[C@H](CC(=O)O)NC(=O)[C@H](CCCCNC(=O)COCCOCCNC(=O)COCCOCCNC(=O)CC[C@H](NC(=O)CCCCCCCCCCCCCCCCC(=O)O)C(=O)O)NC(=O)[C@H](C)NC(=O)[C@H](C)NC(=O)[C@H](CCCNC(=N)N)NC(=O)[C@H](CO)NC(=O)[C@H](CC(=O)O)NC(=O)[C@H](CC(C)C)NC(=O)[C@](C)(Cc1ccccc1)NC(=O)[C@H](CCCCN)NC(=O)[C@H](CO)NC(=O)[C@@H](NC(=O)[C@H](CC(=O)O)NC(=O)[C@H](CO)NC(=O)[C@@H](NC(=O)[C@](C)(Cc1ccccc1)NC(=O)[C@H](CO)NC(=O)CNC(=O)[C@H](Cc1c[nH]cn1)NC(=O)C(C)(C)NC(=O)[C@@H](N)Cc1c[nH]cn1)[C@@H](C)O)C(C)C)C(C)C)C(=O)N[C@@H](C)C(=O)N[C@@H](CC(N)=O)C(=O)N[C@H](C(N)=O)[C@@H](C)O [Peptide 245] (H-H[Aib]HGS[αMeF]TSDVSK[αMeF]LDSRAAK([AEEA-AEEA-γGlu-C18 diacid])D[αMeF]VESIANT-NH2) | 0.0627 nM | 0.11 nM | 1.1
7 | CC[C@H](C)[C@H](NC(=O)[C@H](CO)NC(=O)[C@H](CCC(=O)O)NC(=O)[C@@H](NC(=O)[C@](C)(Cc1ccccc1)NC(=O)[C@H](CC(=O)O)NC(=O)[C@H](CCCCNC(=O)COCCOCCNC(=O)COCCOCCNC(=O)CC[C@H](NC(=O)CC[C@H](NC(=O)CCCCCCCCCCCCCCCCCCC(=O)O)C(=O)O)C(=O)O)NC(=O)[C@H](C)NC(=O)[C@H](C)NC(=O)[C@H](CCCNC(=N)N)NC(=O)[C@H](CO)NC(=O)[C@H](CC(=O)O)NC(=O)[C@H](CC(C)C)NC(=O)[C@](C)(Cc1ccccc1)NC(=O)[C@H](CCCCN)NC(=O)[C@H](CO)NC(=O)[C@@H](NC(=O)[C@H](CC(=O)O)NC(=O)[C@H](CO)NC(=O)[C@@H](NC(=O)[C@](C)(Cc1ccccc1)NC(=O)[C@H](CO)NC(=O)CNC(=O)[C@H](Cc1c[nH]cn1)NC(=O)C(C)(C)NC(=O)[C@@H](N)Cc1c[nH]cn1)[C@@H](C)O)C(C)C)C(C)C)C(=O)N[C@@H](C)C(=O)N[C@@H](CC(N)=O)C(=O)N[C@H](C(N)=O)[C@@H](C)O [Peptide 246] (H-H[Aib]HGS[αMeF]TSDVSK[αMeF]LDSRAAK([AEEA-AEEA-γGlu-γGlu-C20 diacid])D[αMeF]VESIANT-NH2) | 0.557 nM | 0.32 nM | 3.4
